Results: patent US10093666B2, “Deuterated O-sulfated beta lactam hydroxamic acids and deuterated N-sulfated beta lactams” (ARIXA PHARMACEUTICALS, INC., priority 2016, dated 2018)

Assays:
[1] = IV dosing of rats (cassette), plasma concentration vs. time by LC/MS/MS; conditions: for Ratio of b/a: ratio of plasma concentrations b to a (tigemonam), rats, IV
Procedure: A cohort of three rats was IV dosed using 2 mg/kg cassette IV dosing. […] Samples were withdrawn at various time points indicated below and processed using the following procedure. A 50 μL rat plasma sample was transferred to a well of a 96 well-plate, 20 μL of 0.1 ng/μL of Losartan (internal standard) in acetonitrile was added and 300 μL of acetonitrile/formic acid (100/2). The sample was then vortexed and centrifuged at 300 rpm for 5 minutes. Then 200 μL of the supernatant was mixed with 200 μL of double distilled water and was injected (5 μL) on a phenomex Polar-RP 80A column (75×2.0 mm), which was run at 30° C. at a flow rate of 600 μL/minute with a mobile phase A of acetonitrile/formic acid 100/0.02 and a mobile phase B of water/formic acid 100/0.02.
Each time point above represents a value obtained by averaging the measured plasma concentration of three rats.

[2] = Oral dosing of rats (cassette), plasma concentration vs. time by LC/MS/MS; conditions: for Ratio of b/a: ratio of plasma concentrations b to a (tigemonam), oral
Procedure: Samples were withdrawn at various time points indicated below and processed using the following procedure. A 50 μL rat plasma sample was transferred to a well of a 96 well-plate, 20 μL of 0.1 ng/μL of Losartan (internal standard) in acetonitrile was added and 300 μL of acetonitrile/formic acid (100/2). The sample was then vortexed and centrifuged at 300 rpm for 5 minutes. Then 200 μL of the supernatant was mixed with 200 μL of double distilled water and was injected (5 μL) on a phenomex Polar-RF 80A column (75×2.0 mm), which was run at 30° C. at a flow rate of 600 μL/minute with a mobile phase A of acetonitrile/formic acid 100/0.02 and a mobile phase B of water/formic acid 100/0.02. The eluate was analyzed by LC/MS/MS (electrospray) to provide the following values of plasma concentration vs. time listed in Table 1, which were then plotted to yield the graph illustrated in FIG. 2.
Each time point above represents a value obtained by averaging the measured plasma concentration of three rats. […] Other compounds may also be tested in the above assay.

[2H]C([2H])([2H])C1(C([2H])([2H])[2H])[C@H](NC(=O)/C(=N\OCC(=O)O)c2csc(N)n2)C(=O)N1OS(=O)(=O)O [b]
effect of deuteration of tigemonam on IV bioavailability ([1]; rat, in vivo, iv): no effect | plasma levels compared with tigemonam ([1]; rat, in vivo, iv, 1 mg/kg): almost identical | r = b − a ([1]; rat, in vivo, iv, 0.167 h): 235 | r = b − a ([1]; rat, in vivo, iv, 0.5 h): 19 | r = b − a ([1]; rat, in vivo, iv, 1 h): −31 | r = b − a ([1]; rat, in vivo, iv, 2 h): 21 | r = b − a ([1]; rat, in vivo, iv, 4 h): 2 | r = b − a ([1]; rat, in vivo, iv, 6 h): −2 | r = b − a ([1]; rat, in vivo, iv, 8 h): 0 | r = b − a ([1]; rat, in vivo, iv, 24 h): 0 | Ratio of b/a ([1]; 0.167 hours): 1.04 | Ratio of b/a ([1]; 0.5 hours): 1.01 | Ratio of b/a ([1]; 1 hours): .9 | Ratio of b/a ([1]; 2 hours): 1.14 | Ratio of b/a ([1]; 4 hours): 1.06 | Ratio of b/a ([1]; 6 hours): .6 | effect of deuteration of tigemonam on oral bioavailability ([2]; rat, in vivo, po): increase | plasma level greater than the plasma level of tigemonam ([2]; rat, in vivo, po, 5 mg/kg): at least 20% | r = b − a ([2]; rat, in vivo, po, 0.167 h): 266 | r = b − a ([2]; rat, in vivo, po, 0.5 h): 694 | r = b − a ([2]; rat, in vivo, po, 1 h): 531 | r = b − a ([2]; rat, in vivo, po, 2 h): 175 | r = b − a ([2]; rat, in vivo, po, 4 h): 55 | r = b − a ([2]; rat, in vivo, po, 6 h): 4 | r = b − a ([2]; rat, in vivo, po, 8 h): 1 | r = b − a ([2]; rat, in vivo, po, 24 h): 0 | Ratio of b/a ([2]; rats, 0.167 hours): 1.19 | Ratio of b/a ([2]; rats, 0.5 hours): 1.24 | Ratio of b/a ([2]; rats, 1 hours): 1.25 | Ratio of b/a ([2]; rats, 2 hours): 1.26 | Ratio of b/a ([2]; rats, 4 hours): 1.48 | Ratio of b/a ([2]; rats, 8 hours): 1.25 | Ratio of b/a ([2]; rats, C6 hours): 1.15 | oral absorption compared with tigemonam ([2]; rats, oral cassette dosing, 5 mg/kg each): increased level
